Target: thromboxane A2 receptor (TBXA2R) (Gα12) (Homo sapiens, UniProt P21731)
Assay: BRET² G protein dissociation assay, TBXA2R with Gα12
Type: cell-based
Details: for Mean (plotted), G protein dissociation BRET² signal: TBXA2R-G12, Fig. 5c source data
Protocol: G protein dissociation assays were performed according to the original protocols of the TRUPATH BRET² assay[47],[87] but with subtle modifications as previously described[61],[88],[89]. All reagents and cells were obtained from Thermo Fisher Scientific unless indicated otherwise. The coding sequences for the G protein biosensors[47] (Gα12-Rluc8, Gα13-Rluc8, wt Gβ3, and Gγ9-GFP), the wt GPR55, the construct used for cryo-EM (with GFP bearing a G67A mutation to disrupt fluorescence properties[48] for BRET² assays), GPR55 binding pocket mutants (G152^4.56F, G152^4.56W, N171^ECL2Q, N171^ECL2A, T176^5.33A, R253^6.62A), and the wt TBXA2R were codon-optimized for Homo sapiens, gene-synthesized, and sub-cloned into pcDNA^TM3.1(+) between NheI and HindIII restriction sites by GeneArt (Thermo Fisher Scientific). […] Freshly grown cells were washed with Dulbecco’s Balanced Salt Solution (DPBS, cat. #14200075) and detached using trypsin-ethylenediaminetetraacetic acid (trypsin-EDTA) (cat. #25300-062). Then, the cells were reconstituted to 500,000 cells per mL with fresh medium, and 1,000,000 cells were seeded into each well of a 6-well plate. After 3 h incubation at 37 °C and 5% CO2, adherent cells were transfected with 600 ng DNA (1:1:1:1 ratio of plasmid DNA for GPR55, wt Gβ3, Gγ9-GFP, and Gα12-Rluc8 or Gα13-Rluc8). Plasmid DNA was mixed with 1.5 µL Lipofectamine^TM 2000 (cat. #11668027) in Opti-MEM^TM medium (cat. #31985062) and incubated for 20 min. Then, the mixture was added to each well of the 6-well plate following 24 h incubation at 37 °C and 5% CO2. Transfected cells were washed with DPBS, detached using EDTA (Versene, cat. #15040066), and reconstituted into fresh medium at 500,000 cells mL^−1. From this suspension, 50,000 cells were seeded into each well of a white-bottom 96-well plate (Nunc^TM MicroWell^TM 96 wells, cat. #136101) following overnight incubation at 37 °C and 5% CO2. Then, the adherent cells were washed with assay medium [Hank’s balanced salt solution (HBSS, cat. #14065056) plus 20 mM HEPES pH 7.4 (cat. #15630056)] and finally reconstituted into 50 µL of the same medium. […] Methoxy e-Coelenterazine was used as luciferase substrate (Prolume Purple, NanoLight Technology, cat. #369), reconstituted at 1 mM in methanol and diluted to 37.5 µM with assay buffer (7.5 µM final assay concentration). The assay was started by the addition of 20 µL luciferase substrate to each well of the assay plate using a Multidrop^TM Combi reagent dispenser (Thermo Fisher Scientific), followed by 5 min incubation at room temperature. Then, 30 µL of agonist dilutions or DMSO control was added (final DMSO concentration 1.5%), followed by an additional 5 min incubation at room temperature. BRET² measurements were performed with a PHERAstar® FSX microplate reader (BMG LABTECH) using a BRET² filter (donor emission 370–450 nm, acceptor emission 500–530 nm) at the maximum fluorescence gain of 3600. BRET² ratios were calculated by dividing GFP emission signals from Rluc8 emission counts. Buffer-DMSO controls were subtracted from each data point to calculate ΔBRET² ratios. The half-maximal effective concentration (potency, EC50) and maximal effect (efficacy, Emax) were determined by sigmoidal dose-response curve fit with variable slope.

Sequence of thromboxane A2 receptor (TBXA2R) (Gα12) (P21731 whole entry, species assumed): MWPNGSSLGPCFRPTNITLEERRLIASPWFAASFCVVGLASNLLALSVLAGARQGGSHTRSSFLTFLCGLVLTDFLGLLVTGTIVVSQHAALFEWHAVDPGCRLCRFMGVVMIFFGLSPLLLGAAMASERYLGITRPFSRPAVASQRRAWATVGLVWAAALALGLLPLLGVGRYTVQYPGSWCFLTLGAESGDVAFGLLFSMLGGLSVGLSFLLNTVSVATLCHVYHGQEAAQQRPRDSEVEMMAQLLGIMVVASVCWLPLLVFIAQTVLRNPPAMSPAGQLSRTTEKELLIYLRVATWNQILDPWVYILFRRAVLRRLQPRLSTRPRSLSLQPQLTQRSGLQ
Sequence of thromboxane A2 receptor (TBXA2R) (Gα12) (Q03113 whole entry partner, species assumed): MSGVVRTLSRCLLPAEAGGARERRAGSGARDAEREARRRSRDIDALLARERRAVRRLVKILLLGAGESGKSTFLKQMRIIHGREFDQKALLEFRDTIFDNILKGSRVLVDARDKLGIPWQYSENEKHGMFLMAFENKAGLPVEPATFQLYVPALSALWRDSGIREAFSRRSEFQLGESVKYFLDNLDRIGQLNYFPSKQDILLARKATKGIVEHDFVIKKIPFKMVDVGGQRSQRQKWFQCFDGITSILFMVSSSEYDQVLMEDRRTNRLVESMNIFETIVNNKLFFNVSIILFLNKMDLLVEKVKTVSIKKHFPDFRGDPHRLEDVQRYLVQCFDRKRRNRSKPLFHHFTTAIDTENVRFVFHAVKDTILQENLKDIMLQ
Sequence of thromboxane A2 receptor (TBXA2R) (Gα12) (P16520 whole entry partner, species assumed): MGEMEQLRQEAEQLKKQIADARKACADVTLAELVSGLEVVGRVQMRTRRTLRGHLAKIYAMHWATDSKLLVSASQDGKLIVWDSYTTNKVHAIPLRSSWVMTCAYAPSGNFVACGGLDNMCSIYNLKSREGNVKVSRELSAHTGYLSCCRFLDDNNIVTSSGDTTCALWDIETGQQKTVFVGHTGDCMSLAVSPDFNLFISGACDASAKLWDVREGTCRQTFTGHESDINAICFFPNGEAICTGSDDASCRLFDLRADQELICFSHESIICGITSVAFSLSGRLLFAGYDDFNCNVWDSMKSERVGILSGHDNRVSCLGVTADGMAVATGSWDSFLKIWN
Sequence of thromboxane A2 receptor (TBXA2R) (Gα12) (O14610 1-66 partner limits assumed, species assumed): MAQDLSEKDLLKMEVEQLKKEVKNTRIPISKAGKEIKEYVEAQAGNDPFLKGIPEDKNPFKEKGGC

Row | Mean (plotted), G protein dissociation BRET² signal (concentration 300 pM) | Mean (plotted), G protein dissociation BRET² signal (concentration 1e-9 M) | Mean (plotted), G protein dissociation BRET² signal (concentration 3e-9 M) | Mean (plotted), G protein dissociation BRET² signal (concentration 1e-8 M) | Mean (plotted), G protein dissociation BRET² signal (concentration 3e-8 M) | Mean (plotted), G protein dissociation BRET² signal (concentration 1e-7 M) | Mean (plotted), G protein dissociation BRET² signal (concentration 3e-7 M) | Mean (plotted), G protein dissociation BRET² signal (concentration 1e-6 M) | Mean (plotted), G protein dissociation BRET² signal (concentration 3e-6 M) | Mean (plotted), G protein dissociation BRET² signal (concentration 1e-5 M) | Mean (plotted), G protein dissociation BRET² signal (concentration 3e-5 M) | Efficacy ± SEM (%) (TBXA2, Gα12) | pEC50 ± SEM (TBXA2, Gα12) | EC50 (TBXA2R via Gα12, read-out: potency (EC50)) | Mean (plotted), G protein dissociation BRET² signal (concentration 10 pM) | Mean (plotted), G protein dissociation BRET² signal (concentration 30 pM) | Mean (plotted), G protein dissociation BRET² signal (concentration 100 pM) | SMILES
1 | 0.004412 | 0.004455 | 0.002143 | 0.001783 | 0.001091 | -3.229e-5 | 0.0009853 | 0.004147 | 0.0053 | 0.009359 | 0.007653 |  |  |  |  |  |  | Cc1cccc(N2CCN(C(=O)c3cc(S(=O)(=O)N(C)C)ccc3N3CCCC3)CC2)c1C [ML184, 3-[[4-(2,3-dimethylphenyl)-1-piperazinyl]carbonyl]-N,N-dimethyl-4-(1-pyrrolidinyl)benzenesulfonamide]
2 | -0.007 | -0.0104 | -0.01228 | -0.02818 | -0.04678 | -0.06592 | -0.07783 | -0.08315 |  |  |  | 100 ± 8% | 7.62 ± 0.15 | 24 nM | 0.003425 | 0.003325 | -0.00015 | CCCCC[C@H](O)/C=C/[C@@H]1[C@@H](C/C=C\CCCC(=O)O)[C@H]2CO[C@@H]1C2 [U-46619]

Reference: paper PMC11861906, “Structural basis for lipid-mediated activation of G protein-coupled receptor GPR55” (Nature Communications, 2025)
